IC50 data for one compound are collected here from BindingDB's records for patent US11241438 (Incyte Corporation, 2022).

The assay concerns the target T1, Tyrosine-protein kinase receptor TYRO3 (Homo sapiens, UniProt Q06418).
T1 sequence (Q06418 whole entry): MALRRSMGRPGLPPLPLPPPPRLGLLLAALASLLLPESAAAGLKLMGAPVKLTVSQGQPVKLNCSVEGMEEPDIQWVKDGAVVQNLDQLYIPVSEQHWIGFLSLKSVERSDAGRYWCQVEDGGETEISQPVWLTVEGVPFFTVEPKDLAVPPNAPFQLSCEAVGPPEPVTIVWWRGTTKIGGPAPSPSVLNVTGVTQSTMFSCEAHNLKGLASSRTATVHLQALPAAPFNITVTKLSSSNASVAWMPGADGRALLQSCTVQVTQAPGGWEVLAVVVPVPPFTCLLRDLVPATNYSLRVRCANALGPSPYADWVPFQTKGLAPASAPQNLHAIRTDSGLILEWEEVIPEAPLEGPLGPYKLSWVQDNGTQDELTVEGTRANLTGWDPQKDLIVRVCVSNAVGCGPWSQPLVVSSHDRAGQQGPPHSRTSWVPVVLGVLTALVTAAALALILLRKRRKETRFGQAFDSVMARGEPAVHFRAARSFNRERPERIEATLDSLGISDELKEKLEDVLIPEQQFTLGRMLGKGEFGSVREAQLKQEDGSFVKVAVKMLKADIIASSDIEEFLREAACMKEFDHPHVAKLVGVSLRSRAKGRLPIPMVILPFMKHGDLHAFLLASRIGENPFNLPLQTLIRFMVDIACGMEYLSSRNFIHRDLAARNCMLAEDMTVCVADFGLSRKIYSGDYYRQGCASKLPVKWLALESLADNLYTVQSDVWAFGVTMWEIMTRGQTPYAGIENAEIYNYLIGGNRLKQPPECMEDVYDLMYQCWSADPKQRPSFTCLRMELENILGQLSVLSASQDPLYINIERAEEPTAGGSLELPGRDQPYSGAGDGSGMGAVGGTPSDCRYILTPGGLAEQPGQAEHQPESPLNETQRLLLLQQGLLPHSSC
Kind of assay: TAM Enzymatic Assay. On the procedure:
The kinase assay buffer contained 50 mM HEPES, pH7.5, 10 mM MgCl2, 1 mM EGTA, 0.01% NP-40 and 2 mM DTT. 0.1 ul test compounds dissolved in DMSO were transferred from compound plates to white 384-well assay plates (Greiner […] plates). The final concentration of DMSO was 1.25%. Enzyme solutions of 5.1 nM phosphor-Axl, or 0.0625 nM c-Mer (Carna Biosciences, 08-108), or 0.366 nM Tyro3 (Life Technologies, PR7480A) were prepared in assay buffer. A 1 mM stock solution of peptide substrate Biotin-[…]-amide SEQ ID NO: 1 (Quality Controlled Biochemicals, MA) dissolved in DMSO was diluted to 1 uM in assay buffer containing 2000 uM ATP. 4 ul enzyme solution (or assay buffer for the enzyme blank) was added to the appropriate wells in each plate, and then 4 ul/well substrate solution was added to initiate the reaction. The plate was protected from light and incubated at room temperature for 60 min. […] The plate was incubated for 1 h at room temperature, and HTRF (homogenous time resolved fluorescence) signal was measured on a PHERAstar FS plate reader (BMG labtech). Percentage of inhibition was calculated for each concentration and IC50 value was generated from curve fitting with GraphPad Prism software.

Usually IC50 stands for the point on the concentration scale where inhibition reaches its midpoint. Read a low IC50 as inhibition by little substance. Consider `CC(C)C(=O)N1CCC(c2cc(-c3ccc(NC(=O)c4cn(C(C)C)c(=O)n(-c5ccccn5)c4=O)cc3)c3c(N)ncnn23)CC1` [US11241438, Compound I], for which the IC50 was 55 nM. That is a double-digit nanomolar value.
